Consider 36 compounds from ChEMBL document CHEMBL2046367, “Novel BACE1 inhibitors possessing a 5-nitroisophthalic scaffold at the P2 position” (Bioorg Med Chem Lett, 2012).

In assay [1] the target is T1, Beta-secretase 1 (Homo sapiens, UniProt P56817). Kind of assay: Inhibition of human recombinant BACE1 at 0.2 uM by FRET assay.
Assay [2] deals with T1, Beta-secretase 1. Kind of assay: Inhibition of human recombinant BACE1 at 2 uM by FRET assay.
Assay [3] deals with T1, Beta-secretase 1. Kind of assay: Inhibition of human recombinant BACE1 by FRET assay.

T1 sequence (P56817 whole entry): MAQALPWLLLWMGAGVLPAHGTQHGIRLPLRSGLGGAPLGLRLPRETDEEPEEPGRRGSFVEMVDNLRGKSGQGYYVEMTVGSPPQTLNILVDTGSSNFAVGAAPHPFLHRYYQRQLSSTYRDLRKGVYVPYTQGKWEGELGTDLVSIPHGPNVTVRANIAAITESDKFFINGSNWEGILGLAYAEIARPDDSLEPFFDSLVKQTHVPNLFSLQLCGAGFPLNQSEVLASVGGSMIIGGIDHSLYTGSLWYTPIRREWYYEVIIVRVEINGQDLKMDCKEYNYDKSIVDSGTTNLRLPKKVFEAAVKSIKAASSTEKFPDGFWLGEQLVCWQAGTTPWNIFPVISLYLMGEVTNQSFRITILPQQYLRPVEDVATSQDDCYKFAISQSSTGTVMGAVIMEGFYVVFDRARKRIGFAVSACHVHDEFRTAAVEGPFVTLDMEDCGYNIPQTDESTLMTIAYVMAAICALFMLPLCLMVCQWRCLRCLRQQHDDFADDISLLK

For the compound `C[C@@H](NC(=O)c1cc(C(=O)N[C@@H](Cc2ccccc2)[C@H](O)C(=O)Nc2cccc(-c3nn[nH]n3)c2)cc([N+](=O)[O-])c1)c1ccc(F)cc1`, the inhibition in assay [1] came out at 50%; in assay [2], 87%.

For `CCCN(CCC)C(=O)c1cc(C(=O)N[C@@H](Cc2ccccc2)[C@H](O)C(=O)Nc2cccc(-c3nn[nH]n3)c2)cc([N+](=O)[O-])c1`, the inhibition in assay [2] turned out to be 79%.

`O=C(N[C@@H](Cc1ccccc1)[C@H](O)C(=O)Nc1cccc(-c2nn[nH]n2)c1)c1cc(C(=O)N2CCCC2)cc([N+](=O)[O-])c1`: in assay [2], the inhibition worked out at 24%.

Regarding `CC(C)(C)[C@H]1COCN1C(=O)c1cc(C(=O)N[C@@H](Cc2ccccc2)[C@H](O)C(=O)Nc2cccc(-c3nn[nH]n3)c2)cc([N+](=O)[O-])c1`, the inhibition in assay [2] is 71%.

For `CC(C)[C@H]1COCN1C(=O)c1cc(C(=O)N[C@@H](Cc2ccccc2)[C@H](O)C(=O)Nc2cccc(-c3nn[nH]n3)c2)cc([N+](=O)[O-])c1`, the results for the inhibition in assay [1] and in assay [2] were 44% and 88%, respectively.

Consider `COC[C@H]1CCCN1C(=O)c1cc(C(=O)N[C@@H](Cc2ccccc2)[C@H](O)C(=O)Nc2cccc(-c3nn[nH]n3)c2)cc([N+](=O)[O-])c1`, for which the values for the inhibition in assay [1] and in assay [2] were 57% and 89%, respectively.

For `C[C@H]1COCN1C(=O)c1cc(C(=O)N[C@@H](Cc2ccccc2)[C@H](O)C(=O)Nc2cccc(-c3nn[nH]n3)c2)cc([N+](=O)[O-])c1`, in assay [2], the inhibition worked out at 33%.

Take `CC(C)C[C@H]1COCN1C(=O)c1cc(C(=O)N[C@@H](Cc2ccccc2)[C@H](O)C(=O)Nc2cccc(-c3nn[nH]n3)c2)cc([N+](=O)[O-])c1`: the inhibition in assay [1] turned out to be 42%; in assay [2], 85%.

Consider `O=C(N[C@@H](Cc1ccccc1)[C@H](O)C(=O)Nc1cccc(-c2nn[nH]n2)c1)c1cc(C(=O)N2COC[C@@H]2Cc2c[nH]c3ccccc23)cc([N+](=O)[O-])c1`, for which the inhibition in assay [2] is 57%.

As to `CC(=O)Oc1cc(C(=O)N[C@@H](Cc2ccccc2)[C@H](O)C(=O)Nc2cccc(-c3nn[nH]n3)c2)cc(C(=O)N2COC[C@@H]2c2ccccc2)c1`, the inhibition in assay [2] was 79%.

Take `CSCC[C@H]1COCN1C(=O)c1cc(C(=O)N[C@@H](Cc2ccccc2)[C@H](O)C(=O)Nc2cccc(-c3nn[nH]n3)c2)cc([N+](=O)[O-])c1`: the values for the inhibition in assay [1] and in assay [2] were 45% and 86%, respectively.

As to `CC(C)(C)c1cc(C(=O)N[C@@H](Cc2ccccc2)[C@H](O)C(=O)Nc2cccc(-c3nn[nH]n3)c2)cc(C(=O)N2COC[C@@H]2c2ccccc2)c1`, the inhibition in assay [2] worked out at 63%.

Regarding `O=C(N[C@@H](Cc1ccccc1)[C@H](O)C(=O)Nc1cccc(-c2nn[nH]n2)c1)c1cc(C(=O)N2CCCCCCC2)cc([N+](=O)[O-])c1`, the inhibition in assay [1] is 38%; in assay [2], 80%.

Turning to `O=C(N[C@@H](Cc1ccccc1)[C@H](O)C(=O)Nc1cccc(-c2nn[nH]n2)c1)c1cc(C(=O)N2COC[C@@H]2c2ccc(F)cc2)cc([N+](=O)[O-])c1`, the IC50 in assay [3] turned out to be 13 nM. Moreover, the values for the inhibition in assay [1] and in assay [2] were 91% and 99%, respectively.

With `CCC[C@H]1COCN1C(=O)c1cc(C(=O)N[C@@H](Cc2ccccc2)[C@H](O)C(=O)Nc2cccc(-c3nn[nH]n3)c2)cc([N+](=O)[O-])c1`, the inhibition in assay [1] was determined as 57%; in assay [2], 93%.

`O=C(N[C@@H](Cc1ccccc1)[C@H](O)C(=O)Nc1cccc(-c2nn[nH]n2)c1)c1cc(C(=O)N2COC[C@@H]2CC2CCCCC2)cc([N+](=O)[O-])c1`: in assay [2], the inhibition stood at 50%.

With `O=C(N[C@@H](Cc1ccccc1)[C@H](O)C(=O)Nc1cccc(-c2nn[nH]n2)c1)c1cc(C(=O)N2COC[C@@H]2c2cc(F)c(F)c(F)c2)cc([N+](=O)[O-])c1`, the inhibition came out at 41% in assay [1] and 81% in assay [2].

Consider `O=C(N[C@@H](Cc1ccccc1)[C@H](O)C(=O)Nc1cccc(-c2nn[nH]n2)c1)c1cc(I)cc(C(=O)N2COC[C@@H]2c2ccccc2)c1`, for which the inhibition in assay [1] is 78%; in assay [2], 98%.

Regarding `O=C(N[C@@H](Cc1ccccc1)[C@H](O)C(=O)Nc1cccc(-c2nn[nH]n2)c1)c1cc(C(=O)N2CCOCC2)cc([N+](=O)[O-])c1`, in assay [2], the inhibition was determined as 0%.

For the compound `O=C(N[C@@H](Cc1ccccc1)[C@H](O)C(=O)Nc1cccc(-c2nn[nH]n2)c1)c1cc(C(=O)N2COC[C@@H]2Cc2ccccc2)cc([N+](=O)[O-])c1`, the inhibition in assay [1] was 45%; in assay [2], 89%.

Regarding `O=C(N[C@@H](Cc1ccccc1)[C@H](O)C(=O)Nc1cccc(-c2nnn[nH]2)c1)c1cc(I)cc(C(=O)N2COC[C@@H]2c2ccccc2)c1`, the IC50 in assay [3] came to 34 nM.

Regarding `Cc1cc(C(=O)N[C@@H](Cc2ccccc2)[C@H](O)C(=O)Nc2cccc(-c3nn[nH]n3)c2)cc(C(=O)N2COC[C@@H]2c2ccccc2)c1`, the inhibition turned out to be 65% in assay [1] and 95% in assay [2].

For `O=C(N[C@@H](Cc1ccccc1)[C@H](O)C(=O)Nc1cccc(-c2nn[nH]n2)c1)c1cc(Br)cc(C(=O)N2COC[C@@H]2c2ccccc2)c1`, in assay [3], the IC50 was determined as 25 nM. For the same compound, the inhibition in assay [1] came out at 84%; in assay [2], 98%.

Consider `CCCC[C@H]1COCN1C(=O)c1cc(C(=O)N[C@@H](Cc2ccccc2)[C@H](O)C(=O)Nc2cccc(-c3nn[nH]n3)c2)cc([N+](=O)[O-])c1`, for which the inhibition came out at 59% in assay [1] and 92% in assay [2].

Turning to `C[C@@H](NC(=O)c1cc(C(=O)N[C@@H](Cc2ccccc2)[C@H](O)C(=O)Nc2cccc(-c3nn[nH]n3)c2)cc([N+](=O)[O-])c1)c1ccccc1`, the results for the inhibition in assay [1] and in assay [2] were 44% and 83%, respectively.

With `CC[C@H]1COCN1C(=O)c1cc(C(=O)N[C@@H](Cc2ccccc2)[C@H](O)C(=O)Nc2cccc(-c3nn[nH]n3)c2)cc([N+](=O)[O-])c1`, the inhibition in assay [1] turned out to be 54%; in assay [2], 92%.

Regarding `CCC(C)[C@H]1COCN1C(=O)c1cc(C(=O)N[C@@H](Cc2ccccc2)[C@H](O)C(=O)Nc2cccc(-c3nn[nH]n3)c2)cc([N+](=O)[O-])c1` (stereo partly specified), the inhibition in assay [1] was 62%; in assay [2], 94%.

Turning to `O=C(N[C@@H](Cc1ccccc1)[C@H](O)C(=O)Nc1cccc(-c2nn[nH]n2)c1)c1cc(C(=O)N2COC[C@@H]2c2ccccc2)cc([N+](=O)[O-])c1`, the 50% inhibitory concentration (IC50) in assay [3] amounted to 19 nM. Also, the inhibition turned out to be 88% in assay [1] and 98% in assay [2].

Take `Nc1cc(C(=O)N[C@@H](Cc2ccccc2)[C@H](O)C(=O)Nc2cccc(-c3nn[nH]n3)c2)cc(C(=O)N2COC[C@@H]2c2ccccc2)c1`: the inhibition in assay [2] is 49%.

Regarding `Cc1cc(C(=O)N[C@@H](Cc2ccccc2)[C@H](O)C(=O)Nc2cccc(-c3nnn[nH]3)c2)cc(C(=O)N2COC[C@@H]2c2ccccc2)c1`, in assay [3], the IC50 came out at 67 nM.

Consider `O=C(N[C@@H](Cc1ccccc1)[C@H](O)C(=O)Nc1cccc(-c2nn[nH]n2)c1)c1cc(C(=O)N2CCCCCC2)cc([N+](=O)[O-])c1`, for which the inhibition in assay [2] was determined as 60%.

On to `O=C(N[C@@H](Cc1ccccc1)[C@H](O)C(=O)Nc1cccc(-c2nn[nH]n2)c1)c1cccc(C(=O)N2COC[C@@H]2c2ccccc2)c1`, for which the IC50 in assay [3] worked out at 192 nM. Besides, the inhibition amounted to 46% in assay [1] and 85% in assay [2].

For `O=C(N[C@@H](Cc1ccccc1)[C@H](O)C(=O)Nc1cccc(-c2nn[nH]n2)c1)c1cc(C(=O)N2COC[C@@H]2Cc2ccc(O)cc2)cc([N+](=O)[O-])c1`, the inhibition in assay [2] was found to be 80%.

As to `O=C(O)c1cc(C(=O)N[C@@H](Cc2ccccc2)[C@H](O)C(=O)Nc2cccc(-c3nn[nH]n3)c2)cc(C(=O)N2COC[C@@H]2c2ccccc2)c1`, the half-inhibitory concentration (IC50) in assay [3] is 122 nM. For the same compound, the values for the inhibition in assay [1] and in assay [2] were 60% and 91%, respectively.

On to `O=C(N[C@@H](Cc1ccccc1)[C@H](O)C(=O)Nc1cccc(-c2nn[nH]n2)c1)c1cc(C(=O)N2CCCCCCCC2)cc([N+](=O)[O-])c1`, for which the inhibition in assay [2] was determined as 28%.

As for `O=C(N[C@@H](Cc1ccccc1)[C@H](O)C(=O)Nc1cccc(-c2nn[nH]n2)c1)c1cc(C(=O)N2CCCCC2)cc([N+](=O)[O-])c1`, the inhibition in assay [2] was determined as 49%.
